In the assay the target is T1, FLT3(D835Y) (Homo sapiens, UniProt P36888, D835Y).
T1 sequence (P36888 27-993 D835Y): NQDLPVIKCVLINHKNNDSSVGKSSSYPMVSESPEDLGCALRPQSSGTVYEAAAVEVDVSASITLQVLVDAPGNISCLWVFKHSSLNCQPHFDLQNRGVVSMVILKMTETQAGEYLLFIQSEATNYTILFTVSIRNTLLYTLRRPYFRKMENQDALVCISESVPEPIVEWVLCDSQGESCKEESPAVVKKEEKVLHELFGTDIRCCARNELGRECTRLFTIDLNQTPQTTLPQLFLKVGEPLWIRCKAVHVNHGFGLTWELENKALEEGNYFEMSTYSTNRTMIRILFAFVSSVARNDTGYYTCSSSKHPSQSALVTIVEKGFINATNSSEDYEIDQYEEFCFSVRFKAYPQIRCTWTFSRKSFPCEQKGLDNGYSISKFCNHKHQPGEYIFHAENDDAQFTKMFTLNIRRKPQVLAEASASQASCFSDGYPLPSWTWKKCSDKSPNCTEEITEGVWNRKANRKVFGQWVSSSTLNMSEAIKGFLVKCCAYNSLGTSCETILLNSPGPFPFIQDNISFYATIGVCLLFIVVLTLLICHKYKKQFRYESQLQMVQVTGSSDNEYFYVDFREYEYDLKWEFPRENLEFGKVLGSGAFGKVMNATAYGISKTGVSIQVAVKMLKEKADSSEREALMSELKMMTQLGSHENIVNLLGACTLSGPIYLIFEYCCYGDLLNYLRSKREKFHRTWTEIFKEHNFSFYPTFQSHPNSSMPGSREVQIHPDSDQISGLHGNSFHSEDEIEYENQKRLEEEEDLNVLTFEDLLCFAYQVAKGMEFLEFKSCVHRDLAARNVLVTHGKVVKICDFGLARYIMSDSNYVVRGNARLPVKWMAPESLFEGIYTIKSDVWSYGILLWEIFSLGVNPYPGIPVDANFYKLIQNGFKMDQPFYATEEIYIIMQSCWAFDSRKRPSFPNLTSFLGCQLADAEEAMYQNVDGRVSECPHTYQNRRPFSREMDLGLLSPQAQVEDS
Put plainly: Off-target kinase panel, ZLYTE: FLT3(D835Y). It counts as biochemical. The following applies: read-out: Estimated IC50 (uM) FLT3(D835Y). From the text: The activity data was obtained in a panel of 265 and 264 for compounds 1-1 and CC-1, respectively, using the ZLYTE and ADAPTA assay methods indicated in the table below.
The ZLYTE biochemical assay employs a fluorescence-based, coupled-enzyme format and is based on the differential sensitivity of phosphorylated and non-phosphorylated peptides to proteolytic cleavage. The peptide substrate is labeled with two fluorophores—one at each end—that make up a Fluorescence Resonance Energy Transfer (FRET) pair.
In the primary reaction, the kinase transfers the gamma-phosphate of ATP to a single tyrosine, serine or threonine residue in a synthetic FRET-peptide. In the secondary reaction, a site-specific protease recognizes and cleaves non-phosphorylated FRET-peptides. Phosphorylation of FRET-peptides suppresses cleavage by the Development Reagent. […] A ratiometric method, which calculates the ratio (the Emission Ratio) of donor emission to acceptor emission after excitation of the donor fluorophore at 400 nm, is used to quantitate reaction progress, as shown in the equation below. […]
Both cleaved and uncleaved FRET-peptides contribute to the fluorescence signals and therefore to the Emission Ratio. The extent of phosphorylation of the FRET-peptide can be calculated from the Emission Ratio. […]
10. Read on fluorescence plate reader and analyze the data.

The structures appear in SMILES notation.

Broadly, the IC50 is the concentration at which inhibition is half-maximal.

`O=C1NC(=O)C2(CCN(c3cc(Cl)cc4[nH]ncc34)CC2)N1` [CC-1]: the half-inhibitory concentration (IC50) is 1.5 µM.
